Tested on: B16–F10 cells
Test: RNaseq gene expression profiling
Format: cell-based, mouse
Conditions: RNAseq
Description: AC-340 superinduced CYP24A1 expression in all cell lines tested, and ZG-126 appeared to be a hyperagonist in SK-MEL-28 cells. […] AC-340 treatment produced 3 times more differentially expressed genes (DEGs) than AM-193, with ZG-126 producing an intermediate number (Figure A). […] The varying effects of each treatment on the numbers of regulated genes and the fold changes observed are reflected in plots of log-fold changes and volcano plots (Figure S3B).
A quality control was performed before sequencing in paired-end at 50 M reads by Illumina NovaSeq 6000 S4 PE100. After sequencing, the FASTQ files were sent to us and all downstream analysis were performed on Galaxy (Galaxy (usegalaxy.org)). First, trimmomatic tool was used to remove the adapters from the reads. Then, using the alignment tool, HISAT2, the reads were mapped to the mouse genome. In the next step, the counted reads were annotated and finally the list of differentially expressed genes (DEGs) for each treatment was obtained using the preinstalled R package called Limma.

## CCC(CC)(c1ccc(OCCCCCC(=O)NO)cc1)c1ccc(OCC(O)C(C)(C)C)c(C)n1 (stereo not shown) [AM-193]
Gene Acat2, AM193-significant genes
  logFC Acat2: -0.7924
Gene Agt, AM193-significant genes
  logFC Agt: -0.9491
Gene Aimp2, AM193-significant genes
  logFC Aimp2: -0.7904
Gene Alyref, AM193-significant genes
  logFC Alyref: -0.7893
Gene Anln, AM193-significant genes
  logFC Anln: -0.751
Gene Aurkb, AM193-significant genes
  logFC Aurkb: -0.7442
Gene B3galt5, AM193-significant genes
  logFC B3galt5: -0.7772
Gene Bhlhe40, AM193-significant genes
  logFC Bhlhe40: -0.9608
Gene Birc5, AM193-significant genes
  logFC Birc5: -0.9013
Gene Bnip1, AM193-significant genes
  logFC Bnip1: -0.7195
Gene Bora, AM193-significant genes
  logFC Bora: -0.8854
Gene Brca1, AM193-significant genes
  logFC Brca1: -0.7501
Gene Bsn, AM193-significant genes
  logFC Bsn: -0.8525
Gene Cad, AM193-significant genes
  logFC Cad: -1.103
Gene Calr, AM193-significant genes
  logFC Calr: -0.7283
Gene Ccl5, AM193-significant genes
  logFC Ccl5: -0.8403
Gene Ccna2, AM193-significant genes
  logFC Ccna2: -0.7214
Gene Ccnb1, AM193-significant genes
  logFC Ccnb1: -0.7431
Gene Ccnf, AM193-significant genes
  logFC Ccnf: -0.8441
Gene Cd3eap, AM193-significant genes
  logFC Cd3eap: -0.7422
Gene Cdc6, AM193-significant genes
  logFC Cdc6: -0.8307
Gene Cdc20, AM193-significant genes
  logFC Cdc20: -0.7899
Gene Cdc25c, AM193-significant genes
  logFC Cdc25c: -0.8576
Gene Cdk1, AM193-significant genes
  logFC Cdk1: -0.7282
Gene Cdk2, AM193-significant genes
  logFC Cdk2: -0.7948
Gene Cenpa, AM193-significant genes
  logFC Cenpa: -0.7639
Gene Cenpn, AM193-significant genes
  logFC Cenpn: -0.717
Gene Cep152, AM193-significant genes
  logFC Cep152: -0.7072
Gene Cse1l, AM193-significant genes
  logFC Cse1l: -0.7192
Gene Dctd, AM193-significant genes
  logFC Dctd: -1.041
Gene Ddah1, AM193-significant genes
  logFC Ddah1: -1.0571
Gene Dhcr24, AM193-significant genes
  logFC Dhcr24: -1.0227
Gene Dis3, AM193-significant genes
  logFC Dis3: -0.7516
Gene Dkc1, AM193-significant genes
  logFC Dkc1: -0.7246
Gene Dnph1, AM193-significant genes
  logFC Dnph1: -0.7927
Gene E2f8, AM193-significant genes
  logFC E2f8: -0.7725
Gene Egln1, AM193-significant genes
  logFC Egln1: -1.099
Gene Elovl6, AM193-significant genes
  logFC Elovl6: -0.8086
Gene Eme1, AM193-significant genes
  logFC Eme1: -0.7703
Gene Eps8, AM193-significant genes
  logFC Eps8: -0.9363
Gene Espl1, AM193-significant genes
  logFC Espl1: -0.8155
Gene Exosc6, AM193-significant genes
  logFC Exosc6: -0.7177
Gene Exosc8, AM193-significant genes
  logFC Exosc8: -0.7524
Gene Fam162a, AM193-significant genes
  logFC Fam162a: -1.049
Gene Fam83d, AM193-significant genes
  logFC Fam83d: -0.8732
Gene Fasn, AM193-significant genes
  logFC Fasn: -0.7289
Gene Fdps, AM193-significant genes
  logFC Fdps: -0.7443
Gene Fkbp11, AM193-significant genes
  logFC Fkbp11: -1.012
Gene Foxm1, AM193-significant genes
  logFC Foxm1: -0.7084
Gene Fubp1, AM193-significant genes
  logFC Fubp1: -0.7875
Gene Fut11, AM193-significant genes
  logFC Fut11: -0.7657
Gene Gamt, AM193-significant genes
  logFC Gamt: -0.9245
Gene Gar1, AM193-significant genes
  logFC Gar1: -0.799
Gene Gcat, AM193-significant genes
  logFC Gcat: -1.125
Gene Gemin4, AM193-significant genes
  logFC Gemin4: -0.7731
Gene Gins1, AM193-significant genes
  logFC Gins1: -0.7214
Gene Gjb2, AM193-significant genes
  logFC Gjb2: -0.8099
Gene Gm973, AM193-significant genes
  logFC Gm973: -0.7844
Gene Grhpr, AM193-significant genes
  logFC Grhpr: -0.8764
Gene Grwd1, AM193-significant genes
  logFC Grwd1: -0.9726
Gene Gys1, AM193-significant genes
  logFC Gys1: -0.7213
Gene H1f3, AM193-significant genes
  logFC H1f3: -0.9967
Gene H1f6, AM193-significant genes
  logFC H1f6: -1.042
Gene H2ac6, AM193-significant genes
  logFC H2ac6: -0.96
Gene H2ac8, AM193-significant genes
  logFC H2ac8: -0.9016
Gene H2ac11, AM193-significant genes
  logFC H2ac11: -0.8838
Gene H2ac25, AM193-significant genes
  logFC H2ac25: -0.7891
Gene H2ax, AM193-significant genes
  logFC H2ax: -0.7149
Gene H2bc6, AM193-significant genes
  logFC H2bc6: -0.7735
Gene H2bc8, AM193-significant genes
  logFC H2bc8: -0.9803
Gene H2bc9, AM193-significant genes
  logFC H2bc9: -1.042
Gene H2bc11, AM193-significant genes
  logFC H2bc11: -0.7444
Gene H2bc18, AM193-significant genes
  logFC H2bc18: -0.8059
Gene H2bu1-ps, AM193-significant genes
  logFC H2bu1-ps: -0.9542
Gene H3c1, AM193-significant genes
  logFC H3c1: -0.892
Gene H3c6, AM193-significant genes
  logFC H3c6: -0.7599
Gene H3c7, AM193-significant genes
  logFC H3c7: -0.9595
Gene H4c1, AM193-significant genes
  logFC H4c1: -0.7797
Gene H4c2, AM193-significant genes
  logFC H4c2: -0.7954
Gene Higd1a, AM193-significant genes
  logFC Higd1a: -0.903
Gene Hirip3, AM193-significant genes
  logFC Hirip3: -0.7302
Gene Hmga1, AM193-significant genes
  logFC Hmga1: -1.033
Gene Hmga1b, AM193-significant genes
  logFC Hmga1b: -1.051
Gene Hmgb2, AM193-significant genes
  logFC Hmgb2: -0.8226
Gene Hmgcs1, AM193-significant genes
  logFC Hmgcs1: -0.7755
Gene Hmgn2, AM193-significant genes
  logFC Hmgn2: -0.7752
Gene Hpse, AM193-significant genes
  logFC Hpse: -0.8433
Gene Hrob, AM193-significant genes
  logFC Hrob: -0.8536
Gene Hspa5, AM193-significant genes
  logFC Hspa5: -0.7657
Gene Idi1, AM193-significant genes
  logFC Idi1: -1.099
Gene Ier3, AM193-significant genes
  logFC Ier3: -0.7432
Gene Impa2, AM193-significant genes
  logFC Impa2: -0.8388
Gene Impdh2-ps, AM193-significant genes
  logFC Impdh2-ps: -0.7159
Gene Incenp, AM193-significant genes
  logFC Incenp: -0.7108
Gene Ip6k3, AM193-significant genes
  logFC Ip6k3: -0.7379
Gene Irgm1, AM193-significant genes
  logFC Irgm1: -0.7387
Gene Jmjd6, AM193-significant genes
  logFC Jmjd6: -0.8319
Gene Jpt2, AM193-significant genes
  logFC Jpt2: -0.8326
Gene Kif2c, AM193-significant genes
  logFC Kif2c: -0.7884
Gene Kif14, AM193-significant genes
  logFC Kif14: -0.8043
Gene Kif20b, AM193-significant genes
  logFC Kif20b: -0.7216
Gene Kif22, AM193-significant genes
  logFC Kif22: -0.8428
Gene Kif23, AM193-significant genes
  logFC Kif23: -0.7776
Gene Ldha, AM193-significant genes
  logFC Ldha: -0.9079
Gene Ldlr, AM193-significant genes
  logFC Ldlr: -0.7666
Gene Lig1, AM193-significant genes
  logFC Lig1: -0.7368
Gene Lmnb1, AM193-significant genes
  logFC Lmnb1: -0.9349
Gene Loxl2, AM193-significant genes
  logFC Loxl2: -1.106
Gene Lpcat1, AM193-significant genes
  logFC Lpcat1: -1.098
Gene Lpgat1, AM193-significant genes
  logFC Lpgat1: -0.8431
Gene Lrp8, AM193-significant genes
  logFC Lrp8: -0.9511
Gene Lyar, AM193-significant genes
  logFC Lyar: -0.724
Gene Man2a1, AM193-significant genes
  logFC Man2a1: -0.7409
Gene Mcm10, AM193-significant genes
  logFC Mcm10: -0.7922
Gene Mest, AM193-significant genes
  logFC Mest: -1.125
Gene Met, AM193-significant genes
  logFC Met: -1.057
Gene Mitf, AM193-significant genes
  logFC Mitf: -0.8034
Gene Mki67, AM193-significant genes
  logFC Mki67: -0.7294
Gene Mxd3, AM193-significant genes
  logFC Mxd3: -0.9949
Gene Mybl2, AM193-significant genes
  logFC Mybl2: -1.058
Gene Naa10, AM193-significant genes
  logFC Naa10: -0.8589
Gene Nampt, AM193-significant genes
  logFC Nampt: -0.7338
Gene Nasp, AM193-significant genes
  logFC Nasp: -0.9086
Gene Nbn, AM193-significant genes
  logFC Nbn: -0.7109
Gene Ndc80, AM193-significant genes
  logFC Ndc80: -0.7825
Gene Net1, AM193-significant genes
  logFC Net1: -0.7159
Gene Nhp2, AM193-significant genes
  logFC Nhp2: -0.7487
Gene Nhsl1, AM193-significant genes
  logFC Nhsl1: -0.7298
Gene Nmi, AM193-significant genes
  logFC Nmi: -0.8028
Gene Noc2l, AM193-significant genes
  logFC Noc2l: -0.884
Gene Nr4a1, AM193-significant genes
  logFC Nr4a1: -0.9791
Gene Nsun2, AM193-significant genes
  logFC Nsun2: -0.766
Gene P4ha2, AM193-significant genes
  logFC P4ha2: -0.8086
Gene Pbk, AM193-significant genes
  logFC Pbk: -0.8895
Gene Pclaf, AM193-significant genes
  logFC Pclaf: -0.7086
Gene Pfkl, AM193-significant genes
  logFC Pfkl: -1.068
Gene Pfkp, AM193-significant genes
  logFC Pfkp: -0.83
Gene Pgf, AM193-significant genes
  logFC Pgf: -1.056
Gene Pgm1, AM193-significant genes
  logFC Pgm1: -0.9062
Gene Pgp, AM193-significant genes
  logFC Pgp: -0.8532
Gene Pif1, AM193-significant genes
  logFC Pif1: -0.8212
Gene Pimreg, AM193-significant genes
  logFC Pimreg: -0.8591
Gene Plekha2, AM193-significant genes
  logFC Plekha2: -0.8787
Gene Plk1, AM193-significant genes
  logFC Plk1: -0.7788
Gene Plpp5, AM193-significant genes
  logFC Plpp5: -0.8001
Gene Pmf1, AM193-significant genes
  logFC Pmf1: -0.796
Gene Pnn, AM193-significant genes
  logFC Pnn: -0.8904
Gene Pold1, AM193-significant genes
  logFC Pold1: -0.8466
Gene Pold2, AM193-significant genes
  logFC Pold2: -0.855
Gene Prkcz, AM193-significant genes
  logFC Prkcz: -1.145
Gene Psmb10, AM193-significant genes
  logFC Psmb10: -0.8103
Gene Ptpn6, AM193-significant genes
  logFC Ptpn6: -0.8579
Gene Rcc1, AM193-significant genes
  logFC Rcc1: -0.8765
Gene Rcc1l, AM193-significant genes
  logFC Rcc1l: -0.7067

— publication PMC12517324, “Hyperagonism of a Vitamin D Receptor Agonist/Histone Deacetylase Inhibitor Hybrid Molecule” (Journal of Medicinal Chemistry, 2025)
